Results reported in patent US10189853B2, “Conformationally restricted 4-substituted-2,6-dimethylfuro[2,3-d]pyrimidines as anti-tumor agents” (DUQUESNE UNIVERSITY OF THE HOLY SPIRIT, priority 2014, dated 2019).
Read-outs that look alike come from different tables or passages of the source.

Legend:
HeLa cells = assay: Antiproliferative SRB assay; assay type: cell-based; conditions: 48 h, read-out: IC50 ± SD in HeLa
[1] = tested on: M6/6 cells (SK-OV-3 expressing Pgp); assay: Antiproliferative SRB assay; conditions: for IC50: read-out: IC50 ± SD in M6/6 cells, SRB, 48 h; for Rr value (relative resistance): M6/6 (Pgp) vs SKOV3
[2] = tested on: cellular microtubules in A-10 cells; assay: Microtubule depolymerization, indirect immunofluorescence; assay type: cell-based; conditions: for EC50: A-10 cells, 18 h, read-out: EC50 for MT depolymerization in A-10 cells
Description: Evaluation of microtubule inhibition was performed using previously described methods.^22 Indirect immunofluorescence was used to evaluate the effects of the compounds on cellular microtubules as described previously.^38 Briefly, A-10 cells were treated for 18 h with vehicle (DMSO) or a compound, and microtubule effects were evaluated microscopically using β-tubulin antibody. The EC50 was calculated from 3 independent experiments and expressed as the mean±SD.

[3] = tested on: WTβ3 cells (HeLa overexpressing βIII tubulin); assay: Antiproliferative SRB assay; assay type: cell-based; conditions: for IC50: SRB, 48 h, read-out: IC50 ± SD in WTβ3
SKOV3 cells = assay: Antiproliferative SRB assay; assay type: cell-based; conditions: read-out: IC50 ± SD in SKOV3 cells
MDA-435 cells = assay: Antiproliferative SRB assay; assay type: cell-based; conditions: read-out: IC50 ± SD in MDA-435 cells
[4] = tested on: colchicine site on tubulin; assay: Inhibition of [3H]colchicine binding; conditions: 5 μM
purified tubulin = assay: Inhibition of tubulin assembly; assay type: biochemical; conditions: read-out: Inhibition tubulin assembly IC50 ± SD
RXF 393 = assay: NCI 60 cell line panel; assay type: cell-based; conditions: Homo sapiens, Renal Cancer
COLO 205 = assay: NCI 60 cell line panel; assay type: cell-based; conditions: Homo sapiens, Colon Cancer
BT-549 = assay: NCI 60 cell line panel; assay type: cell-based; conditions: Homo sapiens
PC-3 = assay: NCI 60 cell line panel; assay type: cell-based; conditions: Homo sapiens, Prostate Cancer
NCI-H460 = assay: NCI 60 cell line panel; assay type: cell-based; conditions: Homo sapiens, NSCLC
CCRF-CEM = assay: NCI 60 cell line panel; assay type: cell-based; conditions: Homo sapiens, Leukemia
CAKI-1 = assay: NCI 60 cell line panel; assay type: cell-based; conditions: Homo sapiens, Renal Cancer
MDA-MB-231/ATCC = assay: NCI 60 cell line panel; assay type: cell-based; conditions: Homo sapiens, Breast Cancer
MOLT-4 = assay: NCI 60 cell line panel; assay type: cell-based; conditions: Homo sapiens, Leukemia
NCI-H23 = assay: NCI 60 cell line panel; assay type: cell-based; conditions: Homo sapiens, NSCLC
SNB-75 = assay: NCI 60 cell line panel; assay type: cell-based; conditions: Homo sapiens, CNS Cancer
EKVX = assay: NCI 60 cell line panel; assay type: cell-based; conditions: Homo sapiens, NSCLC
K-562 = assay: NCI 60 cell line panel; assay type: cell-based; conditions: Homo sapiens, K562, Leukemia
NCI/ADR-RES = assay: NCI 60 cell line panel; assay type: cell-based; conditions: Homo sapiens, Ovarian cancer
HCT-116 = assay: NCI 60 cell line panel; assay type: cell-based; conditions: Homo sapiens, Colon Cancer
MDA-MB-468 = assay: NCI 60 cell line panel; assay type: cell-based; conditions: Homo sapiens, Breast Cancer
HL-60(TB) = assay: NCI 60 cell line panel; assay type: cell-based; conditions: Homo sapiens, Leukemia
HCT-15 = assay: NCI 60 cell line panel; assay type: cell-based; conditions: Homo sapiens, Colon Cancer
VEGFR-2 = VEGFR-2 (Homo sapiens (Human), UniProt P35968); assay: VEGFR-2 kinase inhibition, phosphotyrosine ELISA cytoblot; assay type: cell-based; conditions: U251 cells, phosphotyrosine ELISA
Sequence of VEGFR-2 (P35968 20-1356): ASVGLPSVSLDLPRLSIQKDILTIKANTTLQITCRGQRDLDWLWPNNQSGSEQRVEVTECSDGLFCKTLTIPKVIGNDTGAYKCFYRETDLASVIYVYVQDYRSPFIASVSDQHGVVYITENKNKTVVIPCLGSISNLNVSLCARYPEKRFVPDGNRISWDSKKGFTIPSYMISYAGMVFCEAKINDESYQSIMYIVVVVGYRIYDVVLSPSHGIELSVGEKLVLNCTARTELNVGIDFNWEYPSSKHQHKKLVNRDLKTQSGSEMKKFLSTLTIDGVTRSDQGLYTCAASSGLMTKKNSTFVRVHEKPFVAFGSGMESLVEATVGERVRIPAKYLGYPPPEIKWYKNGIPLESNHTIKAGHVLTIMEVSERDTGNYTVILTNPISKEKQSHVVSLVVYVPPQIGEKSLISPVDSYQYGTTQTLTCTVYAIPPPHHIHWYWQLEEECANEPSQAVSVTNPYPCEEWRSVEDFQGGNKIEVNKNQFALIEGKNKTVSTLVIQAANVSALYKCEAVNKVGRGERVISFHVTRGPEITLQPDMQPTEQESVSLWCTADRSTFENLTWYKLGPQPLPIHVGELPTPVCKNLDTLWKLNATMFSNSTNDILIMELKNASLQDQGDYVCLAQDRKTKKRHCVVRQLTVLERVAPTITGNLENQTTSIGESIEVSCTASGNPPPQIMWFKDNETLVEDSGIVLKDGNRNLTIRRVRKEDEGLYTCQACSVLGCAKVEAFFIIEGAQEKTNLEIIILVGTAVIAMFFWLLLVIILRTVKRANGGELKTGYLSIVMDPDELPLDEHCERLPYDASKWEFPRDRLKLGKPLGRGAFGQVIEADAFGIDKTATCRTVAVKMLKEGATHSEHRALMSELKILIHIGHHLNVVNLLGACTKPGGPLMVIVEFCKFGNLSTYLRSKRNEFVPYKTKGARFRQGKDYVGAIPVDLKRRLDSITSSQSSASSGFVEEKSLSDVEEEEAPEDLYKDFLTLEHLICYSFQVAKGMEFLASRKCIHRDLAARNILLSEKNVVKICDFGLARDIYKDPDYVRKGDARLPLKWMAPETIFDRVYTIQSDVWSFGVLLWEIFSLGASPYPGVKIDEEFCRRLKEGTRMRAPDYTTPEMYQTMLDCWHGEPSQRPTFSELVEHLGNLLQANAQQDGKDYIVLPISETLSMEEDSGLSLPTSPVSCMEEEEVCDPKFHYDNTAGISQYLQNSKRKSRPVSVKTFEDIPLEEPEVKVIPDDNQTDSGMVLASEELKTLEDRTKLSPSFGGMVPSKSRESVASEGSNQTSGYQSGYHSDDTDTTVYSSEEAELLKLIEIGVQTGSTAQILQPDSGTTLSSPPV
Description: (§1) Cells used were tumor cell lines naturally expressing high levels of EGFR (A431), VEGFR-2 (U251), and PDGFR-β (SH-SYSY). […] The reaction was stopped and cells were permeabilized by quickly removing the media from the cells and adding ice-cold Tris-buffered saline (TBS) containing 0.05% Triton X-100, protease inhibitor cocktail and tyrosine phosphatase inhibitor cocktail. The TBS solution was then removed and cells fixed to the plate for 30 min at 60° C. and further incubation in 70% ethanol for an additional 30 min. Cells were further exposed to block (TBS with 1% BSA) for 1 h, washed, and then a horseradish peroxidase (HRP)-conjugated phosphotyrosine (PY) antibody was added overnight.

SN 12C = assay: NCI 60 cell line panel; assay type: cell-based; conditions: Homo sapiens, SN12C, Renal Cancer
U251 = assay: NCI 60 cell line panel; assay type: cell-based; conditions: Homo sapiens, U-251, CNS Cancer
OVCAR-3 = assay: NCI 60 cell line panel; assay type: cell-based; conditions: Homo sapiens, Ovarian cancer
786-0 = assay: NCI 60 cell line panel; assay type: cell-based; conditions: Homo sapiens
ACHN = assay: NCI 60 cell line panel; assay type: cell-based; conditions: Homo sapiens, Renal Cancer
HOP-92 = assay: NCI 60 cell line panel; assay type: cell-based; conditions: Homo sapiens, NSCLC
TK-10 = assay: NCI 60 cell line panel; assay type: cell-based; conditions: Homo sapiens, Renal Cancer
SF-268 = assay: NCI 60 cell line panel; assay type: cell-based; conditions: Homo sapiens, CNS Cancer
MDA-MB-435 = assay: NCI 60 cell line panel; assay type: cell-based; conditions: Homo sapiens, Melanoma
OVCAR-8 = assay: NCI 60 cell line panel; assay type: cell-based; conditions: Homo sapiens, Ovarian cancer
SF-295 = assay: NCI 60 cell line panel; assay type: cell-based; conditions: Homo sapiens, CNS Cancer
NCI-H522 = assay: NCI 60 cell line panel; assay type: cell-based; conditions: Homo sapiens, NSCLC
SK-MEL-5 = assay: NCI 60 cell line panel; assay type: cell-based; conditions: Homo sapiens, Melanoma
SR = assay: NCI 60 cell line panel; assay type: cell-based; conditions: Homo sapiens, Leukemia
SF-539 = assay: NCI 60 cell line panel; assay type: cell-based; conditions: Homo sapiens, CNS Cancer
HS 578T = assay: NCI 60 cell line panel; assay type: cell-based; conditions: Homo sapiens, Breast Cancer
UACC-62 = assay: NCI 60 cell line panel; assay type: cell-based; conditions: Homo sapiens, Melanoma
SK-OV-3 = assay: NCI 60 cell line panel; assay type: cell-based; conditions: Homo sapiens, Ovarian cancer
HOP-62 = assay: NCI 60 cell line panel; assay type: cell-based; conditions: Homo sapiens, NSCLC
M14 = assay: NCI 60 cell line panel; assay type: cell-based; conditions: Homo sapiens, Melanoma
EGFR = EGFR (Homo sapiens (Human), UniProt P00533); assay: EGFR kinase inhibition, phosphotyrosine ELISA cytoblot; assay type: cell-based; conditions: A431 cells
Sequence of EGFR (P00533 25-1210): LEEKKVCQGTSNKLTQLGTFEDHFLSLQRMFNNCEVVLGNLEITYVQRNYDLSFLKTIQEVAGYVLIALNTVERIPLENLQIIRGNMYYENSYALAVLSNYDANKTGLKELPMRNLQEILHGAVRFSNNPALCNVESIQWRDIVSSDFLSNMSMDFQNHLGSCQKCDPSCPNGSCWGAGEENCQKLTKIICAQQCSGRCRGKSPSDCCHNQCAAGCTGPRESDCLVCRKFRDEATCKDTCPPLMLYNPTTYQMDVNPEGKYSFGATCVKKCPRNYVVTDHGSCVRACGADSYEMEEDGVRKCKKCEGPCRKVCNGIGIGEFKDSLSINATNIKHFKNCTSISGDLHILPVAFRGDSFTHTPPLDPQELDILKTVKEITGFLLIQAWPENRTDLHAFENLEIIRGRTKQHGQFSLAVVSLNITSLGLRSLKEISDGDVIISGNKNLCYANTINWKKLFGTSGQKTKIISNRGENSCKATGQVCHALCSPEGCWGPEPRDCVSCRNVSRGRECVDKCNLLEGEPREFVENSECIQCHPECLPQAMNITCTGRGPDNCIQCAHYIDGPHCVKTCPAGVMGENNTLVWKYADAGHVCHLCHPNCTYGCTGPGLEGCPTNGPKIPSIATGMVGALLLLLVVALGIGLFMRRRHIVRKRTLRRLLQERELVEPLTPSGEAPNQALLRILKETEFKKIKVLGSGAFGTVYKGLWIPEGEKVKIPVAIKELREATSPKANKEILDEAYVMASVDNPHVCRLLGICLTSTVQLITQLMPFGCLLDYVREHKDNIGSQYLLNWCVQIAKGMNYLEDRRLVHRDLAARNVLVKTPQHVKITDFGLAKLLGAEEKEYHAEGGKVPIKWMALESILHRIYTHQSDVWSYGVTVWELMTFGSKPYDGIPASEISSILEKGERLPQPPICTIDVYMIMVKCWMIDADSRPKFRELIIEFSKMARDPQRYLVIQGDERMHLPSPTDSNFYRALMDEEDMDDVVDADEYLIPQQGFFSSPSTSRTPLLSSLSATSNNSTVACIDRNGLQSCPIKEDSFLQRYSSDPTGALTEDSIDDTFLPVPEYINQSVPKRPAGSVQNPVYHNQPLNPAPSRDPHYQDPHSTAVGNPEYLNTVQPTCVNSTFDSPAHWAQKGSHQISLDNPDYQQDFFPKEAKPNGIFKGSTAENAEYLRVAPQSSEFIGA
Description: as §1

DU-145 = assay: NCI 60 cell line panel; assay type: cell-based; conditions: Homo sapiens, Prostate Cancer
SW-620 = assay: NCI 60 cell line panel; assay type: cell-based; conditions: Homo sapiens, Colon Cancer
SNB-19 = assay: NCI 60 cell line panel; assay type: cell-based; conditions: Homo sapiens, CNS Cancer
A431 cancer cells = assay: A431 cytotoxicity (cell proliferation); assay type: cell-based, human
OVCAR-4 = assay: NCI 60 cell line panel; assay type: cell-based; conditions: Homo sapiens, Ovarian cancer
MCF7 = assay: NCI 60 cell line panel; assay type: cell-based; conditions: Homo sapiens, Breast Cancer
IGROV1 = assay: NCI 60 cell line panel; assay type: cell-based; conditions: Homo sapiens, IGROV-1, Ovarian cancer
HT29 = assay: NCI 60 cell line panel; assay type: cell-based; conditions: Homo sapiens, HT-29, Colon Cancer
OVCAR-5 = assay: NCI 60 cell line panel; assay type: cell-based; conditions: Homo sapiens, Ovarian cancer
LOX IMVI = assay: NCI 60 cell line panel; assay type: cell-based; conditions: Homo sapiens, Melanoma
KM12 = assay: NCI 60 cell line panel; assay type: cell-based; conditions: Homo sapiens, Colon Cancer
SK-MEL-2 = assay: NCI 60 cell line panel; assay type: cell-based; conditions: Homo sapiens

Which results are given for COc1ccc(/C=C\c2cc(OC)c(OC)c(OC)c2)cc1O [CA-4, combretastatin A-4, reference compound]?
IC50 (HeLa cells): 5.6 ± 0.3 nM; IC50 [1]: 3 ± 0.3 nM; EC50 [2]: 9.8 nM; IC50 [3]: 5.7 ± 0.4 nM; IC50 (SKOV3 cells; 48 h): 6.9 ± 0.1 nM; IC50 (MDA-435 cells; 48 h): 5 ± 0.3 nM; Inhibition of colchicine binding % inhibition ± SD [4]: 99 ± 0.2%; IC50 (purified tubulin): 1000 ± 90 nM

What does the source list for Cc1nc(N(C)c2ccc3c(c2)CCO3)c2cc(C)oc2n1 [Compound 6, N-(2,3-dihydro-1-benzofuran-5-yl)-N,2,6-trimethylfuro[2,3-d]pyrimidin-4-amine]?
GI50 (RXF 393): 21.2 nM; GI50 (COLO 205): 40.3 nM; IC50 (HeLa cells; Homo sapiens, HeLa): 105 ± 5.8 nM; GI50 (BT-549): 77.2 nM; GI50 (PC-3): 52.2 nM; GI50 (NCI-H460): 42 nM; GI50 (CCRF-CEM): 58.1 nM; Rr value (relative resistance) [1]: 1.3; GI50 (CAKI-1): 40.1 nM; effect on cellular microtubules ([2]; in words): dose-dependent loss of cellular microtubules; GI50 (MDA-MB-231/ATCC): 148 nM; GI50 (MOLT-4): 76.7 nM; GI50 (NCI-H23): 43.9 nM; GI50 (SNB-75): 30.4 nM; GI50 (EKVX): 70 nM; GI50 (K-562): 31.7 nM; GI50 (NCI/ADR-RES): 26.5 nM; GI50 (HCT-116): 45.1 nM; GI50 (MDA-MB-468): 22.1 nM; IC50 ([3]; Homo sapiens, HeLa): 94 ± 7 nM; Rr value (relative resistance) ([3]; WTβ3 vs HeLa): 0.9; GI50 (HL-60(TB)): 27.6 nM; GI50 (HCT-15): 38.9 nM; IC50 (VEGFR-2): 6.7 ± 0.81 nM; GI50 (SN 12C): 97.2 nM; GI50 (U251): 39.7 nM; GI50 (OVCAR-3): 24.5 nM; GI50 (786-0): 80.4 nM; GI50 (ACHN): 64.2 nM; GI50 (HOP-92): 45.8 nM; GI50 (TK-10): 50.2 nM; GI50 (SF-268): 13.9 nM; GI50 (MDA-MB-435): 14 nM; IC50 (SKOV3 cells; Homo sapiens, SK-OV-3, 48 h): 120 ± 5 nM; GI50 (OVCAR-8): 63 nM; GI50 (SF-295): 30.5 nM; GI50 (NCI-H522): 12.9 nM; GI50 (SK-MEL-5): 31.4 nM; GI50 (SR): 36.6 nM; GI50 (SF-539): 31.6 nM; GI50 (HS 578T): 31 nM; GI50 (UACC-62): 61.3 nM; GI50 (SK-OV-3): 37.6 nM; GI50 (HOP-62): 39.6 nM; IC50 (MDA-435 cells; MDA435, 48 h): 96.2 ± 13 nM; GI50 (M14): 34.8 nM; IC50 (EGFR): 226 ± 50.2 nM; GI50 (DU-145): 44.1 nM; GI50 (SW-620): 41.6 nM; GI50 (SNB-19): 56.5 nM; IC50 (A431 cancer cells; Homo sapiens, A-431): 38.3 ± 4.2 nM; GI50 (OVCAR-4): 83.4 nM; GI50 (MCF7): 40.2 nM; GI50 (IGROV1): 62.9 nM; GI50 (HT29): 32.4 nM; GI50 (OVCAR-5): 262 nM; GI50 (LOX IMVI): 45.6 nM; GI50 (KM12): 40.1 nM; GI50 (SK-MEL-2): 26.4 nM

How did the IC50 ([3]; Homo sapiens, HeLa) turn out when CC(=O)O[C@H]1C(=O)[C@@]2(C)[C@H]([C@H](OC(=O)c3ccccc3)[C@]3(O)C[C@H](OC(=O)[C@H](O)[C@@H](NC(=O)c4ccccc4)c4ccccc4)C(C)=C1C3(C)C)[C@]1(OC(C)=O)CO[C@@H]1C[C@@H]2O [Paclitaxel, reference compound] was run?
Its IC50 is 32.9 ± 5.8 nM.

And the IC50 (SKOV3 cells; Homo sapiens, SK-OV-3, 48 h)?
The IC50 was 6.3 ± 0.4 nM.

What about the IC50 (MDA-435 cells; MDA435, 48 h) of the same compound?
Its IC50 is 3.3 ± 0.3 nM.

CCCOc1ccc(N(C)c2nc(C)nc3oc(C)cc23)cc1 [Compound 12, N-2,6-trimethyl-N-(4-propoxyphenyl)furo[2,3-d]pyrimidin-4-amine] was tested. Which “Rr value (relative resistance)” value [1] did it give?
Its value is 1.3.

And the IC50 [1]?
The IC50 was 30.8 ± 1.7 nM.

What about the IC50 (A431 cancer cells) of the same compound?
Its IC50 is 92.9 ± 10.1 nM.

How did the IC50 (A431 cancer cells; Homo sapiens, A-431) turn out when COc1ccc(N(C)c2nc(C)nc3oc(C)cc23)c(OC)c1 [Compound 2, N-(2,4-dimethoxyphenyl)-N,2,6-trimethylfuro[2,3-d]pyrimidin-4-amine] was run?
The IC50 was 17.1 ± 2 nM.

For COc1ccc(N(C)c2nc(C)nc3oc(C)cc23)cc1 [Compound 1, reference compound], which EC50 [2] is on record?
Its EC50 is 103 nM.

And the IC50 (purified tubulin)?
Its IC50 is 2400 ± 10 nM.
